This passage reports IC50, Activity and inhibition results from ChEMBL document CHEMBL4229504, “Incorporation of histone deacetylase inhibitory activity into the core of tamoxifen - A new hybrid design paradigm” (Bioorg Med Chem, 2018).

The source made the active and inactive calls. No cut-off for these calls is given here.

The target in series [1] is T1, Estrogen receptor (Homo sapiens, UniProt P03372).
T1 sequence (P03372 whole entry): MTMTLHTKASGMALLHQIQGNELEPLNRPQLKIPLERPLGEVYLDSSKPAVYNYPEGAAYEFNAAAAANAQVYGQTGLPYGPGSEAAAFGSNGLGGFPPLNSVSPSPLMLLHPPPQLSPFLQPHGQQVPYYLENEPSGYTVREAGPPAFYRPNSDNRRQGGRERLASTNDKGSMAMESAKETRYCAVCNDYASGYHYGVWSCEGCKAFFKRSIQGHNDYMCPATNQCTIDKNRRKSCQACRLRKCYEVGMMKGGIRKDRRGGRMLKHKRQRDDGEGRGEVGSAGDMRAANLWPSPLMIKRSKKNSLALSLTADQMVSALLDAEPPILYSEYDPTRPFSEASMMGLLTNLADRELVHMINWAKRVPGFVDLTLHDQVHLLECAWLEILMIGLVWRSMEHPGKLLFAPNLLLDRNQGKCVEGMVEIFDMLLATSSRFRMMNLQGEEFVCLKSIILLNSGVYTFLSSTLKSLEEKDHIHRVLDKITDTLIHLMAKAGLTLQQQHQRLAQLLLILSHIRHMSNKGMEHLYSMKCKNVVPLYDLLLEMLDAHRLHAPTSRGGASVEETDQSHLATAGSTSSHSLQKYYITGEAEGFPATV
The series can be described thus: Antagonist activity at recombinant human ERalpha expressed in HEK293 cells assessed as inhibition of estradiol-induced YFP-fused SRC1 coactivator recruitment measured after 1 hr in presence of Coelenterazine H by BRET assay. In kind it is cell-based. A general note: Bioluminescence resonance energy transfer reports proximity on the nanometre scale.

Series [2] addresses T1, Estrogen receptor. The series can be described thus: Partial agonist activity at recombinant human ERalpha expressed in HEK293 cells assessed as YFP-fused SRC1 coactivator recruitment measured after 1 hr in presence of Coelenterazine H by BRET assay. The class given is cell-based. The following applies: hek293, 1 h.
Series [3] addresses T2, Protein deacetylase HDAC6 (Homo sapiens, UniProt Q9UBN7).
T2 sequence (Q9UBN7 whole entry): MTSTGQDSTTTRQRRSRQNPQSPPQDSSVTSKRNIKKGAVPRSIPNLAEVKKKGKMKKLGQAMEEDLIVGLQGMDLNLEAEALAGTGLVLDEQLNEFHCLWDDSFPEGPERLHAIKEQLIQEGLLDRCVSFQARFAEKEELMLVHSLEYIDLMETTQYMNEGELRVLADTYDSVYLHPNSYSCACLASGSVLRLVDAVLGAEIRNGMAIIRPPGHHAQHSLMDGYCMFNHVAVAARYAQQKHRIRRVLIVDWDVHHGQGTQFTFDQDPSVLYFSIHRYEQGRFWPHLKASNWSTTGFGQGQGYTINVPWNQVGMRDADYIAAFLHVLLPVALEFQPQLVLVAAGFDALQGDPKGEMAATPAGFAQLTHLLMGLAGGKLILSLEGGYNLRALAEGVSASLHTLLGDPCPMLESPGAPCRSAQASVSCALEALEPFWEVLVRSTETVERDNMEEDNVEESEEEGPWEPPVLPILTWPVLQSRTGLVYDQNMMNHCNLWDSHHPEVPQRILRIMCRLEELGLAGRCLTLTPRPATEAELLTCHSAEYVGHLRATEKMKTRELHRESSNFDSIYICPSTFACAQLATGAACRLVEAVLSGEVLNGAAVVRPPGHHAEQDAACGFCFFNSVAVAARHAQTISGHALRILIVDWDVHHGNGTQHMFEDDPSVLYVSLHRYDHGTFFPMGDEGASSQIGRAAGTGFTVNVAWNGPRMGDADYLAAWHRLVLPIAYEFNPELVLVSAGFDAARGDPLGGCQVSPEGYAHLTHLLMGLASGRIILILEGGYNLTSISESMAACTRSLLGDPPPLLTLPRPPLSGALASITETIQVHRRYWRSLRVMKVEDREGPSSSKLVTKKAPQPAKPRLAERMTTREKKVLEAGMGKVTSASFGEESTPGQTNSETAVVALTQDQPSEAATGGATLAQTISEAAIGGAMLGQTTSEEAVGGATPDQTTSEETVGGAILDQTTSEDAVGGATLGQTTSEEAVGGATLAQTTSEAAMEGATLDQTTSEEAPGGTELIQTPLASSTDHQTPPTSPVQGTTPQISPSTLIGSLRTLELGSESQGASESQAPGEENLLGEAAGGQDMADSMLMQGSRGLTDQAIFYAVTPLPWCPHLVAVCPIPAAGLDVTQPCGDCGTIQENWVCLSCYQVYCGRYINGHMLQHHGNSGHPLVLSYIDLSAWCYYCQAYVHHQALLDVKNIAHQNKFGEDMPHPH
The series can be described thus: Inhibition of full length recombinant human N-terminal GST-tagged HDAC6 expressed in Sf9 cells using Ac-Leu-Gly-Lys(Ac)-AMC as substrate measured after 30 mins by fluorescence assay.

Series [4] deals with MCF7. The series can be described thus: Cytotoxicity against ER positive human MCF7 cells treated every 2 days for 4 days measured post last dose by CellTiter-Glo luminescence assay. In kind it is functional, cell-based. On the technique in general: ATP-based viability assays read luminescence as a measure of living cells.
Series [5] relates to MCF7. Put plainly: Cytotoxicity against ER positive human MCF7 cells treated every 2 days for 4 days measured after 7 days by CellTiter-Glo luminescence assay. In kind it is functional, cell-based.
For series [6], the target named is Histone deacetylase 3/Nuclear receptor corepressor 2 (HDAC3/NCoR2) (Homo sapiens, UniProt O15379). Put plainly: Inhibition of human full length C-terminal His-tagged HDAC3/N-terminal GST-tagged human NCOR2 (395 to 489 residues) expressed in baculovirus expression system using Ac-Leu-Gly-Lys(Ac)-AMC as substrate measured after 30 mins by fluorescence assay.
In series [7] the target is T3, Protein deacetylase HDAC6 (Homo sapiens) (UniProt Q9UBN7).
T3 sequence (whole entry): T2 sequence (Q9UBN7 whole entry)
Put plainly: Inhibition of HDAC6 in human MCF7 cells assessed as increase in acetylated alpha-tubulin expression at 0.1 to 9 uM after 8 hrs by Western blot analysis. In kind it is cell-based.

The subject of series [8] is MCF-10A. The series can be described thus: Cytotoxicity against ER negative human MCF10A cells treated every 2 days for 4 days measured after 7 days by CellTiter-Glo luminescence assay. The class given is functional, cell-based.
Series [9] deals with T4, Histone deacetylase 6/3 (Homo sapiens) (UniProt O15379+Q9UBN7). The series can be described thus: Inhibition of HDAC6/HDAC3 in human MCF7 cells assessed as induction of CTGF mRNA expression at 5 uM after 24 hrs by QIAzol reagent based RT-qPCR analysis. The class given is cell-based. (Real-time PCR tracks product formation cycle by cycle.)
The target in series [10] is T4, Histone deacetylase 6/3 (Homo sapiens). Put plainly: Inhibition of HDAC6/HDAC3 in human MCF7 cells assessed as induction of CDKN1A mRNA expression at 5 uM after 24 hrs by QIAzol reagent based RT-qPCR analysis. In kind it is cell-based.
Series [11] shares this target. The series can be described thus: Inhibition of HDAC6/HDAC3 in human MCF7 cells assessed as induction of SREBF1 mRNA expression at 5 uM after 24 hrs by QIAzol reagent based RT-qPCR analysis. In kind it is cell-based.
Series [12] concerns the target Histone deacetylase 3 (Homo sapiens) (UniProt O15379). The series can be described thus: Inhibition of HDAC3 in human MCF7 cells assessed as increase in acetylated histone H4 expression at 0.1 to 9 uM after 8 hrs by Western blot analysis. In kind it is cell-based.
The subject of series [13] is MDA-MB-231. Put plainly: Cytotoxicity against ER negative human MDA-MB-231 cells treated every 2 days for 4 days measured post last dose by CellTiter-Glo luminescence assay. In kind it is functional, cell-based.
The test system of series [14] is MCF-10A. The series can be described thus: Cytotoxicity against ER negative human MCF10A cells treated every 2 days for 4 days measured post last dose by CellTiter-Glo luminescence assay. The class given is functional, cell-based.
Series [15] concerns MDA-MB-231. The series can be described thus: Cytotoxicity against ER negative human MDA-MB-231 cells treated every 2 days for 4 days measured after 7 days by CellTiter-Glo luminescence assay. The class given is functional, cell-based.
The target of series [16] is T5, Estrogen receptor (Homo sapiens) (UniProt P03372).
T5 sequence (whole entry): T1 sequence (P03372 whole entry)
Put plainly: Antagonist activity at recombinant human ERalpha expressed in HEK293 cells assessed as inhibition of estradiol-induced YFP-fused SRC1 coactivator recruitment at higher concentration measured after 1 hr in presence of Coelenterazine H by BRET assay. In kind it is cell-based.

Usually IC50 stands for the point on the concentration scale where inhibition reaches its midpoint.

Sequence of Histone deacetylase 3/Nuclear receptor corepressor 2 (HDAC3/NCoR2) (O15379 whole entry, the tested form may be a part): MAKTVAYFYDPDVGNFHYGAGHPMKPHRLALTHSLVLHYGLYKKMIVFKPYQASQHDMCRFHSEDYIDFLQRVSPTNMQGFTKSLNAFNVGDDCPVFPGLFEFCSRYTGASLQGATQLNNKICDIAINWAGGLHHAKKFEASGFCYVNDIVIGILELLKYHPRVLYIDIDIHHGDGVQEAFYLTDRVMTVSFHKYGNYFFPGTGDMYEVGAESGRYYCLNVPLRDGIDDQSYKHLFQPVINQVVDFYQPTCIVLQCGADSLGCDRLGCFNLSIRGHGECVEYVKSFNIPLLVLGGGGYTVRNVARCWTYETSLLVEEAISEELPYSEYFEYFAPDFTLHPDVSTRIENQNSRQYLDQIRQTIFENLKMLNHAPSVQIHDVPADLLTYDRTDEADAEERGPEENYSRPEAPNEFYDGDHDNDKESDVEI
Sequence of Histone deacetylase 3/Nuclear receptor corepressor 2 (HDAC3/NCoR2) (Q9Y618 whole entry, further chain, the tested form may be a part): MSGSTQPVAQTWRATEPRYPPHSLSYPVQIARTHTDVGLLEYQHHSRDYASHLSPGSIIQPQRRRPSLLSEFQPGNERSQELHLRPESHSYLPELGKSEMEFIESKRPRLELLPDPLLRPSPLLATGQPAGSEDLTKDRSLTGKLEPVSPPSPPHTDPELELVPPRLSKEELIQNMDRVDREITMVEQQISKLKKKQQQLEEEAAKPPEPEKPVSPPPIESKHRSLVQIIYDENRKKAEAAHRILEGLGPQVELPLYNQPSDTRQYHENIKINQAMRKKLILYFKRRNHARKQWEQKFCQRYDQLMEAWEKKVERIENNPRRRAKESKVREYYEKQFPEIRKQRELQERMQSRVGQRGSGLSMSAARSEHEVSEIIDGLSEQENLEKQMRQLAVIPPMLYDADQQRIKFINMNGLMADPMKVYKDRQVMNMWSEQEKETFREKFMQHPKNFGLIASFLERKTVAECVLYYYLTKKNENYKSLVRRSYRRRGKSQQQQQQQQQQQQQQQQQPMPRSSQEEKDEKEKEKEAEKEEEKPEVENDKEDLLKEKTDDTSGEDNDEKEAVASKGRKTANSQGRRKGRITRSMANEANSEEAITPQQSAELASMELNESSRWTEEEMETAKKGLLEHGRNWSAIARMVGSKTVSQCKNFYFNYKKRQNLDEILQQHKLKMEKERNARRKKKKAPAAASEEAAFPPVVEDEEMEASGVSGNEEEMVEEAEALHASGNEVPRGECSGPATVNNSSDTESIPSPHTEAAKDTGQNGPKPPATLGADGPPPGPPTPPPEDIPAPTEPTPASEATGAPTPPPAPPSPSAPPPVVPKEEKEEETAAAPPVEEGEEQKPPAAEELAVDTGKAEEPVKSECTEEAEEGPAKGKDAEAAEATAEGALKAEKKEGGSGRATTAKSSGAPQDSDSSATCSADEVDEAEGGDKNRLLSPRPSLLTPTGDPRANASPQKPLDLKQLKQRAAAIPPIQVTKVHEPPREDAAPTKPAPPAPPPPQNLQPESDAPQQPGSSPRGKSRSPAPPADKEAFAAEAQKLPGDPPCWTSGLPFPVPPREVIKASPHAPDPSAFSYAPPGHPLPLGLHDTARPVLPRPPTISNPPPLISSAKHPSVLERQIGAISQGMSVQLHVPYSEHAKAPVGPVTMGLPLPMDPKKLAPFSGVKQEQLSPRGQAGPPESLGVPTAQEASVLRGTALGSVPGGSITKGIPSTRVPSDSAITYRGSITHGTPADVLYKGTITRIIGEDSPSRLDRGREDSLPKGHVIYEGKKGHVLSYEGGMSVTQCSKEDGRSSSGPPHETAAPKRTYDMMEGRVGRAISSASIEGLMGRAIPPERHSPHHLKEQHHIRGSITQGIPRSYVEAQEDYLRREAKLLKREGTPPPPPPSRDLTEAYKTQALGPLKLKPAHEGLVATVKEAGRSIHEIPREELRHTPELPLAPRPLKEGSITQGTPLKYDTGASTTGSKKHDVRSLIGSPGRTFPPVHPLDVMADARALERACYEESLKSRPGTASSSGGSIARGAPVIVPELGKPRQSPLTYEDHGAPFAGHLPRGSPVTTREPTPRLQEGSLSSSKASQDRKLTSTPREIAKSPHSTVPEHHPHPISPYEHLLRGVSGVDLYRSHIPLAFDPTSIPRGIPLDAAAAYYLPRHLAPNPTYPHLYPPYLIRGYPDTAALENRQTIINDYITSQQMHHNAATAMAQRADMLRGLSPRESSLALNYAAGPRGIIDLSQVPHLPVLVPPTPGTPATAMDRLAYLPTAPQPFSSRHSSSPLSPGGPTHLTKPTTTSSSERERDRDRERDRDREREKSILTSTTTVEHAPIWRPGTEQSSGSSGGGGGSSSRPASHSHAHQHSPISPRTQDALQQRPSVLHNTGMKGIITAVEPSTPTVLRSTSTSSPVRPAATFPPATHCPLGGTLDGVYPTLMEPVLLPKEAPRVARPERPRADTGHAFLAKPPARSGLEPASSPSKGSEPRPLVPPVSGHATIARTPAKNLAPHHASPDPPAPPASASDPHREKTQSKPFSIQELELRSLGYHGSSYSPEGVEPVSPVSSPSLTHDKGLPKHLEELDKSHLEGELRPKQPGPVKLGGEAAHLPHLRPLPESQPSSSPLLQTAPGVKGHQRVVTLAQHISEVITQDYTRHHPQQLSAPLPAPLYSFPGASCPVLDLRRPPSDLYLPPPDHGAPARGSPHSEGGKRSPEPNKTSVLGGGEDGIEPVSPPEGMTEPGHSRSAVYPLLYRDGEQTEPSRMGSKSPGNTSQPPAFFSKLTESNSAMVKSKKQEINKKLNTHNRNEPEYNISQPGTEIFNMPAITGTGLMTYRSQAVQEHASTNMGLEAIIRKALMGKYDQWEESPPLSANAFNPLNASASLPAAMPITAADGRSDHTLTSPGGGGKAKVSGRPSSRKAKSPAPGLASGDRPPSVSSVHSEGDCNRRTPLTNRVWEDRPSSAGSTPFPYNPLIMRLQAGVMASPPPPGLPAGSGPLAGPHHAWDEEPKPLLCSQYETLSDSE
T4 sequence (O15379 whole entry, looked up, one chain of several): as the sequence (O15379 whole entry, the tested form may be a part) above
Sequence of Histone deacetylase 3 (Homo sapiens) (O15379 whole entry): as the sequence (O15379 whole entry, the tested form may be a part) above

With `CC/C(=C(\c1ccc(O)cc1)c1ccc(OCCN(C)C)cc1)c1ccc(OCCCCC(=O)NO)cc1`, the IC50 in series [1] was found to be 0.8 µM; in series [3], 1.78 µM; in series [4] it was 2.9 µM; in series [5], 1.2 µM; in [6] it was 2.1 µM. For the same compound, the Activity entry in [2] was “Not Active”.

In the case of `CCC(=C(c1ccc(O)cc1)c1ccc(OCCN(C)C)cc1)c1ccccc1`, the inhibition entry in series [7], in [9], in series [10], in [11] and in series [12] was “inactive” each time. For the same compound, the IC50 in series [8] turned out to be 4 µM; in series [4], 3.9 µM; in [13] it was 3.5 µM; in [14], 4 µM; in series [15], 2.5 µM; in [5], 3.3 µM.

In the case of `CC/C(=C(\c1ccc(O)cc1)c1ccc(OCCN(C)C)cc1)c1ccc(/C=C/C(=O)NO)cc1`, in series [2], the Activity entry is reported as “Not Active”. The IC50 was found to be 0.519 µM in series [3], 4.8 µM in series [4], 2.7 µM in [5] and 6.72 µM in series [6]. In addition, the inhibition entry in series [16] is “Active”.

For `CC/C(=C(\c1ccc(O)cc1)c1ccc(OCCN(C)C)cc1)c1ccc(CCC(=O)NO)cc1`, the IC50 in series [1] came to 1.94 µM; in series [3], 0.484 µM; in series [4], 3.6 µM; in series [5], 1.8 µM; in series [6], 2.01 µM. Also, the Activity result in [2] is recorded as “Not Active”.

Regarding `CC/C(=C(\c1ccc(O)cc1)c1ccc(OCCN(C)C)cc1)c1ccc(C(=O)NO)cc1`, the IC50 in series [1] was determined as 1.12 µM; in [3], 71.9 µM. Moreover, the Activity entry in [2] is on record as “Not Active”.

In the case of `CC/C(=C(\c1ccc(O)cc1)c1ccc(OCCN(C)C)cc1)c1ccc(CCCCC(=O)NO)cc1`, the IC50 in series [1] came to 0.82 µM; in series [8] it was 1.83 µM; in [3] it was 0.3 µM; in series [4] it was 1.3 µM; in series [13], 1.27 µM; in series [14], 2.17 µM. The IC50 in [15] is 1.1 µM; in series [5], 0.79 µM; in [6], 0.734 µM. The Activity entry in [2] is “Not Active”. The inhibition entry in series [9], in [10] and in series [11] was “Active” each time.
